Reference: patent US20180000771A1, “AGENT FOR PREVENTING AND/OR TREATING AMYOTROPHIC LATERAL SCLEROSIS” (KYOTO UNIVERSITY, priority 2015, published 2018)

Assays:
[1] = tested on: motoneuron cells derived from iPS cells having SOD1-L144FVX mutation; conditions: 168 h
[2] = tested on: motoneuron cells derived from iPS cells of ALS patients having C9orf72 mutation; test: survival of motoneuron cells induced from ALS patient iPS cells (C9orf72 mutation); format: cell-based, human; conditions: added on day 7, survived motoneuron cells counted on day 14
[3] = tested on: motoneuron cells derived from iPS cells of sporadic ALS patients; test: survival of motoneuron cells induced from sporadic ALS patient iPS cells; format: cell-based, human
[4] = tested on: nerve cell derived from iPS cell having SOD1-L144FVX mutation; test: neurite length of nerve cells derived from iPS cells; format: cell-based, human; conditions: 1 μM, cultured for 48 hr
Experimental: In detail, small clumps (diameter 40-100 μm) of iPS cell colonies were subjected to a filter treatment with Cell Strainer (BD Falcon), and cultured for 10 days in N2B27 medium [DMEM/F12, Neurobasal, N2 supplement, B27 supplement, L-Gln] added with 100 ng/ml human recombinant Noggin (R&D systems) and 1 μM SB431542 (Sigma) in a culture dish coated with poly-L-lysine (Sigma)/Laminin (BD Falcon) (PLL/LM). Then, the colonies were dissociated into small clumps with 200 U/ml collagenase added with CaCl2, and transferred into a culture dish coated with PLL/ECL (Millipore). After 7 days of culture, the cells were dissociated with Accutase (Innovative Cell Technologies), and cultured in a culture dish coated with PLL/ECL for 7 days (24 d). Finally, the cells dissociated with Accutase and selected by a 40 μm cell strainer (BD Falcon) were counted, cultured for 31 days (56d) in N2B27 medium added with 10 ng/ml BDNF, GDNF, and NT-3 (R&D systems) in a culture dish coated with PLL/LM/Fibronectin (Millipore) to give nerve cells from the iPS cells.

Erk = test: Western blot of Erk phosphorylation in nerve cells; format: cell-based, human; conditions: 1 μM, nerve cells having SOD1 mutation
Experimental: (§1) It is known that phosphorylation of Erk is promoted in nerve cells having mutation SOD1. To examine the mechanism of these candidate medicaments, phosphorylation of Erk was examined by Western blot method. The Western blot method included dissolving cells in RIPA buffer containing 0.1% SDS, 150 mM NaCl, 1% NP-40, 0.5% deoxycholate, 50 mM Tris-HCl (pH 8.0), protease inhibitor (Roche) and phosphatase inhibitor (Roche), centrifugation, measurement of protein concentration, addition of 20 μg amount of protein to each lane, and electrophoresis in 10-20% polyacrylamide gel. After blotting to Immobilon-P membrane (Millipore), the cells were stained with antibodies against Erk, phosphorylated Erk, c-Abl and phosphorylated c-Abl and detected.

c-abl = test: Western blot of c-abl phosphorylation in nerve cells; format: cell-based, human; conditions: 1 μM, nerve cells having SOD1 mutation
Experimental: as §1

[5] = tested on: motoneuron cells derived from iPS cells having SOD1-L144FVX mutation; test: survival of motoneuron cells induced from ALS patient iPS cells (SOD1 mutation)
[6] = added on day 7, survived motoneuron cells counted on day 14

| SMILES | MN index (motoneuron cell survival number ratio as compared to negative control) [1] | cell survival rate improvement, C9orf72 mutation [2] | cell survival rate improving effect, significance, C9orf72 mutation [2] | efficacy for sporadic ALS (conclusion from Tables 5 and 6) [3] | cell survival rate improvement, sporadic [3, 6] | cell survival rate improving effect, significance, sporadic [3, 6] | length of neuritis [4] | phosphorylation of Erk (Erk) | phosphorylation of c-abl (c-abl) | efficacy for ALS having SOD1 mutation (conclusion from Tables 5 and 6) [5] | dose correlation in the protection effect on motoneuron cell having SOD1 mutation ([5]; FIG. 2, FIG. 6) | cell survival rate improvement, SOD1 mutation [5, 6] | cell survival rate improving effect, significance, SOD1 mutation [5, 6] |
| --- | --- | --- | --- | --- | --- | --- | --- | --- | --- | --- | --- | --- | --- |
| CN(C)CCCn1cc(C2=C(c3c[nH]c4ccccc34)C(=O)NC2=O)c2ccccc21 [Bisindolyl-maleimide I, Bisindolylmaleimide I] | 7.96 |  |  |  |  |  |  |  |  |  |  |  |  |
| COc1cc2nccc(Oc3ccc(NC(=O)Nc4cc(C)on4)c(Cl)c3)c2cc1OC [Tivozanib] |  | x (cell survival rate improvement less than 20%) | ○ (significant difference (p < 0.05)) | higher efficacy | ○ (cell survival rate improvement not less than 20%) | ○ (significant difference (p < 0.05)) | elongation of neuritis | decreased | decreased | higher efficacy | increase in the effect in a dose-dependent manner | ○ (cell survival rate improvement not less than 20%) | ○ (significant difference (p < 0.05)) |
